According to patent US4568765A, “Isoprenylamine derivatives” (priority 1981, dated 1986):
Read-outs that look alike come from different tables or passages of the source.

Columns and labels:
vaccinia virus [1] = type: in vivo; details: ICR female mice; 50 mg/kg intraperitoneally 24 hours before i.v. virus inoculation; lesions counted on 8th day; against surfactant solution group
[2] = system: human interferon; normal diploid cells (fibroblast); test: Human interferon inducing activity (in vitro), 3H-uridine-uptake inhibition; type: cell-based; details: 25 n molar suspension, radioisotope microassay
Protocol: Interferon was induced according to the method of Edward A. Havell et al. by treating normal diploid cells (fibroblast) originated from human being with each test compound (in the form of ethanol solution diluted with PBS (-), 25 n molar suspension). Using the radioisotope microassay method of H. Ishitsuka et al., interferon was measured in terms of 3H-uridine-uptakeinhibition rate.

[3] = Toxicity (50% lethal dose, intravenous); type: in vivo; details: ddY male mice 20-25 g
Excerpt: Using ddY male mice weighing 20-25 g, 50% lethal dose of each test compound when intravenously administered was obtained, the results of which are shown in Table 6.

tumor cells KN7 -8 = test: Anti-tumor activity (survivors on the 30th day); type: in vivo; details: survivors/group of 6 Balb/c male mice, 5×10^5 KN7 -8 cells i.p., 30 mg/kg i.p. 24 hours before and on 2nd and 5th day after inoculation
Protocol: Groups, each consisting of 6 Balb/c male mice weighing about 20 g, were intraperitoneally administered 5×10^5 of tumor cells KN7 -8. Each test compound suspended in a surfactant solution was intraperitoneally administered (each time at a rate of 30 mg/kg) to the mice 24 hours before inoculation of the tumor cells and on the second day and the fifth day after the inoculation, totalling 3 times, and the anti-tumor activity was evaluated in terms of number of survivors on the 30th day after the inoculation.

vaccinia virus [4] = type: cell-based; details: vero cells; 50 n molar concentration

SMILES: CC(C)=CCCC(C)=CCCC(C)=CCCC(C)=CCCC(C)=CCCC(C)=CCCC(C)=CCCC(C)=CCCC(C)=CCCC(C)=CCNCCNCCN [drawing 17]
- Prevention from vaccinia infection (Pock inhibition rate %) (vaccinia virus [1]): 51.9%

SMILES: CC(C)=CCCC(C)=CCCC(C)=CCCC(C)=CCCC(C)=CCCC(C)=CCCC(C)=CCCC(C)=CCCC(C)=CCCC(C)=CCN(CCN(CCN(CCNCc1ccccc1)Cc1ccccc1)Cc1ccccc1)Cc1ccccc1
- Human interferon (in vitro) 3H-uridine-uptake inhibition rate % [2]: 23.2%

SMILES: CCNCCN(CC)CCN(CC)CCN(CC)CC=C(C)CCCC(C)CCCC(C)CCCC(C)C (stereo not shown)
- LD50 ([3]; mouse, in vivo, iv, read-out: LD50): 34 mg/kg

SMILES: CC(C)=CCCC(C)=CCCC(C)=CCCC(C)=CCCC(C)=CCCC(C)=CCCC(C)=CCCC(C)=CCCC(C)=CCCC(C)=CCNCCNCCN [drawing 20]
- Anti-tumor activity (Survivor on the 30th day) (tumor cells KN7 -8; 30 mg/kg): 1/6

SMILES: CC(C)=CCCC(C)=CCCC(C)=CCCC(C)=CCCC(C)=CCCC(C)=CCCC(C)=CCCC(C)=CCCC(C)=CCNCCNCCNCCN [drawing 21]
- Anti-tumor activity (Survivor on the 30th day) (tumor cells KN7 -8): 3/6

SMILES: CC(C)=CCCC(C)=CCCC(C)=CCCC(C)=CCCC(C)=CCCC(C)=CCCC(C)=CCCC(C)=CCCC(C)=CCCC(C)=CCNCCNCCNCCN [drawing 19]
- Anti-tumor activity (Survivor on the 30th day) (tumor cells KN7 -8): 5/6

SMILES: CC(C)=CCCC(C)=CCCC(C)=CCCC(C)=CCCC(C)=CCCC(C)=CCCC(C)=CCCC(C)=CCCC(C)=CCCC(C)=CCNCCNCCNCCN [drawing 16]
- Prevention from vaccinia infection (Pock inhibition rate %) (vaccinia virus [1]): 87.9%

SMILES: CC(C)=CCCC(C)=CCCC(C)=CCCC(C)=CCCC(C)=CCCC(C)=CCCC(C)=CCCC(C)=CCCC(C)=CCNCCNCCNCCN [drawing 18]
- Prevention from vaccinia infection (Pock inhibition rate %) (vaccinia virus [1]): 76.1%

SMILES: CC(C)=CCCC(C)=CCCC(C)=CCCC(C)=CCCC(C)=CCCC(C)=CCCC(C)=CCCC(C)=CCCC(C)=CCCC(C)=CCNCCNCCNCCN [drawing 27]
- LD50 [3]: 57 mg/kg

SMILES: CC(C)=CCCC(C)=CCCC(C)=CCCC(C)=CCCC(C)=CCCC(C)=CCCC(C)=CCCC(C)=CCCC(C)=CCCC(C)=CCNCCNCCN [drawing 24]
- Human interferon (in vitro) 3H-uridine-uptake inhibition rate % [2]: 15.1%

SMILES: CC(C)=CCCC(C)=CCCC(C)=CCCC(C)=CCCC(C)=CCCC(C)=CCCC(C)=CCCC(C)=CCCC(C)=CCCC(C)=CCNCCNCCN [drawing 22]
- Anti-tumor activity (Survivor on the 30th day) (tumor cells KN7 -8; 30 mg/kg): 2/6

SMILES: CC(C)=CCCC(C)=CCCC(C)=CCCC(C)=CCCC(C)=CCCC(C)=CCCC(C)=CCCC(C)=CCCC(C)=CCCC(C)=CCNCCNCCNCCN [drawing 25]
- Anti-vaccinia virus activity (in vitro) (Plaque inhibition rate %) (vaccinia virus [4]): 44.5%

SMILES: CC(C)=CCCC(C)=CCCC(C)=CCCC(C)=CCCC(C)=CCCC(C)=CCCC(C)=CCCC(C)=CCCC(C)=CCCC(C)=CCNCCNCCNCCN [drawing 28]
- LD50 [3]: 21 mg/kg
